Our source for the Kd and X-ray crystal structure values is paper PMC1618416, “The Liganding of Glycolipid Transfer Protein Is Controlled by Glycolipid Acyl Structure” (PLoS Biology, 2006).

Type in all cases: binding
The target of assay [1] is T1, glycolipid transfer protein (GLTP) (Homo sapiens, UniProt Q9NZD2).
T1 sequence (Q9NZD2 2-209): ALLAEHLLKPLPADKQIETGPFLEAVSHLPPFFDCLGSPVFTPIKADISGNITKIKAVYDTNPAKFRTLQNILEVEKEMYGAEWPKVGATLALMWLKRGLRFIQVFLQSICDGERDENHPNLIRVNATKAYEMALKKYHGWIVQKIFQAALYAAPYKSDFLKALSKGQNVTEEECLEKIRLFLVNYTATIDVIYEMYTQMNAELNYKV
Briefly: X-ray crystal structure; tryptophan fluorescence Kd. More on the design: recombinant human GLTP, His6- and S-tags removed by Factor Xa.

In assay [2] the target is T1, glycolipid transfer protein (GLTP). Put plainly: tryptophan fluorescence Kd (crystal structure 1SX6 from earlier paper). More on the design: recombinant human GLTP.
Assay [3] has the same target. Briefly: X-ray crystal structure ([…] Å); tryptophan fluorescence Kd. More on the design: recombinant human GLTP, His6- and S-tags removed by Factor Xa.
For assay [4] the target is unchanged. Put plainly: X-ray crystal structure. Details: recombinant human GLTP, His6- and S-tags removed by Factor Xa.

In general, Kd refers to the equilibrium constant for the complex coming apart. Take `CCCCCCCCCCCCC/C=C/[C@@H](O)[C@H](CO[C@@H]1O[C@H](CO)[C@@H](O[C@@H]2O[C@H](CO)[C@H](O)[C@H](O)[C@H]2O)[C@H](O)[C@H]1O)NC(=O)CCCCCCC` [8:0 LacCer, N-octanoyl lactosylsphingosine]: the Kd in assay [1] came to 200 nM.

Regarding `CCCCCCCC/C=C\CCCCCCCC(=O)N[C@@H](CO[C@@H]1O[C@H](CO)[C@@H](O[C@@H]2O[C@H](CO)[C@H](O)[C@H](O)[C@H]2O)[C@H](O)[C@H]1O)[C@H](O)/C=C/CCCCCCCCCCCCC` [18:1 LacCer, N-cis-9-octadecenoyl lactosylsphingosine], in assay [2], the Kd turned out to be 270 nM.

Regarding `CCCCC/C=C\C/C=C\CCCCCCCC(=O)N[C@@H](CO[C@@H]1O[C@H](CO)[C@H](O)[C@H](O)[C@H]1O)[C@H](O)/C=C/CCCCCCCCCCCCC` [18:2 GalCer, N-cis-N-cis-9,12-octadecenoyl galactosyl-sphingosine], in assay [1], the Kd worked out at 200 nM.

Turning to `CCCCCCCC/C=C\CCCCCCCCCCCCCC(=O)N[C@@H](CO[C@@H]1O[C@H](CO)[C@H](O)[C@H](O)[C@H]1O)[C@H](O)/C=C/CCCCCCCCCCCCC` [24:1 GalCer, N-cis-15-tetracosenoyl galactosyl-sphingosine], the Kd in assay [3] turned out to be 250 nM.

As for `CCCCCCO[C@@H]1O[C@H](CO)[C@@H](O)[C@H](O)[C@H]1O` [n-hexyl-β-D-glucoside], the X-ray crystal structure entry in assay [4] is “The sugar headgroup of n-hexyl-β-D-glucoside binds the GLTP recognition center in a manner similar to all GSL-GLTP complexes”.
